These results are taken from patent publication US10206394B2, “Herbicidal compounds” (Syngenta Participations AG, priority 2014, dated 2019).

What all share (assay): Glasshouse assay for herbicidal activity (pre- and post-emergence), percentage phytotoxicity
Holding throughout (type): in vivo

The subject of assay [1] is Alopecurus myosuroides (ALOMY). Conditions: for pest or weed control at 250 g/ha: Alopecurus myosuroides. The gist of the method:
(§1)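 Sow seed in standard soil in pots; apply test herbicide after 1 day (PRE) or about 12 days (POST). Grow on in the glasshouse, watering twice daily, cool-season species at 20/16 °C and warm-season at 24/18 °C. Score visible damage (0–100%) at 20 or 15 DAA respectively.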

Assay [2] relates to Avena fatua (AVEFA). As to conditions: for pest or weed control at 250 g/ha: Avena fatua. The method in brief: as §1
The test system of assay [3] is Echinochloa crus-galli (ECHCG). As to conditions: for pest or weed control at 250 g/ha: Echinochloa crus-galli. The method in brief:
as §1

For assay [4], the system named is Lolium perenne (LOLPE). Conditions: for pest or weed control at 250 g/ha: Lolium perenne. The gist of the method: as §1
Where [5] appears, read: post-emergence, 360 h, POST-emergence, rate 250 g/ha, visual score 15 DAA (100%=total damage, 0%=no damage), read-out: Post-emergence herbicidal activity (percentage phytotoxicity) ALOMY POST.
[6] abbreviates: pre-emergence, 480 h, PRE-emergence, rate 250 g/ha, visual score 20 DAA (100%=total damage, 0%=no damage), read-out: Pre-emergence herbicidal activity (percentage phytotoxicity) ALOMY PRE.
Where [7] appears, read: post-emergence, 360 h, POST-emergence, rate 250 g/ha, visual score 15 DAA (100%=total damage, 0%=no damage), read-out: Post-emergence herbicidal activity (percentage phytotoxicity) AVEFA POST.
Setting [8] is: pre-emergence, 480 h, PRE-emergence, rate 250 g/ha, visual score 20 DAA (100%=total damage, 0%=no damage), read-out: Pre-emergence herbicidal activity (percentage phytotoxicity) AVEFA PRE.
Where [9] appears, read: post-emergence, 360 h, POST-emergence, rate 250 g/ha, visual score 15 DAA (100%=total damage, 0%=no damage), read-out: Post-emergence herbicidal activity (percentage phytotoxicity) ECHCG POST.
Where [10] appears, read: pre-emergence, 480 h, PRE-emergence, rate 250 g/ha, visual score 20 DAA (100%=total damage, 0%=no damage), read-out: Pre-emergence herbicidal activity (percentage phytotoxicity) ECHCG PRE.
[11] abbreviates: post-emergence, 360 h, POST-emergence, rate 250 g/ha, visual score 15 DAA (100%=total damage, 0%=no damage), read-out: Post-emergence herbicidal activity (percentage phytotoxicity) LOLPE POST.
[12] abbreviates: pre-emergence, 480 h, PRE-emergence, rate 250 g/ha, visual score 20 DAA (100%=total damage, 0%=no damage), read-out: Pre-emergence herbicidal activity (percentage phytotoxicity) LOLPE PRE.
The mark [13] stands for this setting: post-emergence, 360 h, Rate 250 g/ha, post-emergence, visual assessment 15 DAA, 100%=total damage, 0%=no damage, read-out: Post-emergence herbicidal activity (percentage phytotoxicity) ALOMY POST.
Where [14] appears, read: pre-emergence, 480 h, Rate 250 g/ha, pre-emergence, visual assessment 20 DAA, 100%=total damage, 0%=no damage, read-out: Pre-emergence herbicidal activity (percentage phytotoxicity) ALOMY PRE.
[15] abbreviates: post-emergence, 360 h, Rate 250 g/ha, post-emergence, visual assessment 15 DAA, 100%=total damage, 0%=no damage, read-out: Post-emergence herbicidal activity (percentage phytotoxicity) AVEFA POST.
[16] abbreviates: pre-emergence, 480 h, Rate 250 g/ha, pre-emergence, visual assessment 20 DAA, 100%=total damage, 0%=no damage, read-out: Pre-emergence herbicidal activity (percentage phytotoxicity) AVEFA PRE.
[17] abbreviates: post-emergence, 360 h, Rate 250 g/ha, post-emergence, visual assessment 15 DAA, 100%=total damage, 0%=no damage, read-out: Post-emergence herbicidal activity (percentage phytotoxicity) ECHCG POST.
The mark [18] stands for this setting: pre-emergence, 480 h, Rate 250 g/ha, pre-emergence, visual assessment 20 DAA, 100%=total damage, 0%=no damage, read-out: Pre-emergence herbicidal activity (percentage phytotoxicity) ECHCG PRE.
Setting [19] is: post-emergence, 360 h, Rate 250 g/ha, post-emergence, visual assessment 15 DAA, 100%=total damage, 0%=no damage, read-out: Post-emergence herbicidal activity (percentage phytotoxicity) LOLPE POST.
[20] abbreviates: pre-emergence, 480 h, Rate 250 g/ha, pre-emergence, visual assessment 20 DAA, 100%=total damage, 0%=no damage, read-out: Pre-emergence herbicidal activity (percentage phytotoxicity) LOLPE PRE.
[21] abbreviates: post-emergence, 360 h, 250 g/ha, post-emergence, 15 DAA, visual assessment (100%=total damage, 0%=no damage), read-out: Post-emergence herbicidal activity (percentage phytotoxicity) ALOMY POST.
Setting [22] is: pre-emergence, 480 h, 250 g/ha, pre-emergence, 20 DAA, visual assessment (100%=total damage, 0%=no damage), read-out: Pre-emergence herbicidal activity (percentage phytotoxicity) ALOMY PRE.
[23] abbreviates: post-emergence, 360 h, 250 g/ha, post-emergence, 15 DAA, visual assessment (100%=total damage, 0%=no damage), read-out: Post-emergence herbicidal activity (percentage phytotoxicity) AVEFA POST.
[24] abbreviates: pre-emergence, 480 h, 250 g/ha, pre-emergence, 20 DAA, visual assessment (100%=total damage, 0%=no damage), read-out: Pre-emergence herbicidal activity (percentage phytotoxicity) AVEFA PRE.
Where [25] appears, read: post-emergence, 360 h, 250 g/ha, post-emergence, 15 DAA, visual assessment (100%=total damage, 0%=no damage), read-out: Post-emergence herbicidal activity (percentage phytotoxicity) ECHCG POST.
[26] abbreviates: pre-emergence, 480 h, 250 g/ha, pre-emergence, 20 DAA, visual assessment (100%=total damage, 0%=no damage), read-out: Pre-emergence herbicidal activity (percentage phytotoxicity) ECHCG PRE.
[27] abbreviates: post-emergence, 360 h, 250 g/ha, post-emergence, 15 DAA, visual assessment (100%=total damage, 0%=no damage), read-out: Post-emergence herbicidal activity (percentage phytotoxicity) LOLPE POST.
The mark [28] stands for this setting: pre-emergence, 480 h, 250 g/ha, pre-emergence, 20 DAA, visual assessment (100%=total damage, 0%=no damage), read-out: Pre-emergence herbicidal activity (percentage phytotoxicity) LOLPE PRE.
Where [29] appears, read: Rate 250 g/ha, post-emergence, assessed visually 15 DAA, 100%=total damage, 0%=no damage.
Setting [30] is: Rate 250 g/ha, pre-emergence, assessed visually 20 DAA, 100%=total damage, 0%=no damage.

Read-outs that look alike come from different tables or passages of the source.

On to `CCc1cc(-n2cc(Cl)cn2)cc(C)c1C1C(=O)CC(CC(=O)NCc2ccc(C#N)cc2)C1=O` (centres unmarked) [Compound B234], for which the pest or weed control at 250 g/ha was 90% in assay [1] (setting [5]); 60% in assay [1] (setting [6]); 100% in assay [2] (setting [7]); 80% in assay [2] (setting [8]); 90% in assay [3] (setting [9]); 70% in assay [3] (setting [10]). Besides, the pest or weed control at 250 g/ha in assay [4] (setting [11]) is 80%; in assay [4] (setting [12]), 70%.

`Cc1cc(-c2ccc(Cl)cn2)cc(C)c1C1C(=O)CC(CC(=O)N(C)Cc2cccc(F)c2)C1=O` (centres unmarked) [Compound B358]: the pest or weed control at 250 g/ha in assay [1] (setting [13]) is 100%; in assay [1] (setting [14]) it was 90%; in assay [2] (setting [15]), 100%; in assay [2] (setting [16]), 100%; in assay [3] (setting [17]) it was 100%; in assay [3] (setting [18]), 100%. The pest or weed control at 250 g/ha in assay [4] (setting [19]) and in assay [4] (setting [20]) was 90% throughout.

Consider `Cc1cc(-c2ncc(Cl)cc2F)cc(C)c1C1C(=O)CC(CC(=O)NCC(C)C)C1=O` (centres unmarked) [Compound B124], for which the pest or weed control at 250 g/ha in assay [1] (setting [21]) came out at 100%; in assay [1] (setting [22]), 90%; in assay [2] (setting [23]) it was 100%; in assay [2] (setting [24]), 100%; in assay [3] (setting [25]), 100%; in assay [3] (setting [26]), 100%. The pest or weed control at 250 g/ha in assay [4] (setting [27]) and in assay [4] (setting [28]) was 100% in each case.

As to `Cc1cc(-c2ncc(Cl)cc2F)cc(C)c1C1C(=O)CC(CC(=O)NCC2CC2)C1=O` (centres unmarked) [Compound B123], the pest or weed control at 250 g/ha turned out to be 100% in assay [1] (setting [21]); 100% in assay [1] (setting [22]); 100% in assay [2] (setting [23]); 90% in assay [2] (setting [24]); 100% in assay [3] (setting [25]); 100% in assay [3] (setting [26]). In addition, the pest or weed control at 250 g/ha in assay [4] (setting [27]) and in assay [4] (setting [28]) was 100% in each case.

Consider `C/C=C/c1cc(C)c(C2C(=O)CC(CC(=O)N(C)CC)C2=O)c(C)c1` (centres unmarked) [Compound B248], for which the pest or weed control at 250 g/ha in assay [1] (setting [5]) stood at 100%; in assay [1] (setting [6]), 50%; in assay [2] (setting [7]), 100%; in assay [2] (setting [8]), 50%; in assay [3] (setting [9]) it was 100%; in assay [3] (setting [10]) it was 60%. Moreover, the pest or weed control at 250 g/ha turned out to be 100% in assay [4] (setting [11]) and 80% in assay [4] (setting [12]).

In the case of `Cc1cc(-c2ccc(F)cc2)cc(C)c1C1C(=O)CC(CC(=O)NC(C)(C)C#N)C1=O` (centres unmarked) [Compound B377], the pest or weed control at 250 g/ha in assay [1] (setting [13]) turned out to be 90%; in assay [1] (setting [14]), 90%; in assay [2] (setting [15]), 100%; in assay [2] (setting [16]), 90%; in assay [3] (setting [17]) it was 90%; in assay [3] (setting [18]) it was 100%. Further, the results for the pest or weed control at 250 g/ha in assay [4] (setting [19]) and in assay [4] (setting [20]) were 30% and 80%, respectively.

`Cc1cc(-c2cnc(Cl)cn2)cc(C)c1C1C(=O)CC(CC(=O)NCc2cccc(C(F)(F)F)c2)C1=O` (centres unmarked) [Compound A149]: in assay [1] (setting [29]), the “Post-emergence herbicidal activity (percentage phytotoxicity) ALOMY POST” value came to 100%. Further, in assay [1] (setting [30]), the “Pre-emergence herbicidal activity (percentage phytotoxicity) ALOMY PRE” value is on record as 80%. For the same compound, the “Post-emergence herbicidal activity (percentage phytotoxicity) AVEFA POST” value in assay [2] (setting [29]) was determined as 100%. The “Pre-emergence herbicidal activity (percentage phytotoxicity) AVEFA PRE” value in assay [2] (setting [30]) turned out to be 100%. In assay [3] (setting [29]), the “Post-emergence herbicidal activity (percentage phytotoxicity) ECHCG POST” value was 100%. Besides, the “Pre-emergence herbicidal activity (percentage phytotoxicity) ECHCG PRE” value in assay [3] (setting [30]) was found to be 100%. In addition, in assay [4] (setting [29]), the “Post-emergence herbicidal activity (percentage phytotoxicity) LOLPE POST” value is 100%. For the same compound, in assay [4] (setting [30]), the “Pre-emergence herbicidal activity (percentage phytotoxicity) LOLPE PRE” value was found to be 90%.

On to `CCc1cc(-n2cc(Cl)cn2)cc(C)c1C1C(=O)CC(CC(=O)NCc2cccc(F)c2)C1=O` (centres unmarked) [Compound B232], for which the pest or weed control at 250 g/ha in assay [1] (setting [5]) amounted to 100%; in assay [1] (setting [6]), 90%; in assay [2] (setting [7]), 100%; in assay [2] (setting [8]), 70%; in assay [3] (setting [9]), 100%; in assay [3] (setting [10]), 90%. The figures for the pest or weed control at 250 g/ha in assay [4] (setting [11]) and in assay [4] (setting [12]) were 100% and 90%, respectively.

For the compound `CCN(C)C(=O)CC1CC(=O)C(c2c(C)cc(-c3ccc(F)cn3)cc2C)C1=O` (centres unmarked) [Compound B392], the pest or weed control at 250 g/ha worked out at 90% in assay [1] (setting [13]); 100% in assay [1] (setting [14]); 100% in assay [2] (setting [15]); 100% in assay [2] (setting [16]); 100% in assay [3] (setting [17]); 100% in assay [3] (setting [18]). Further, the pest or weed control at 250 g/ha in assay [4] (setting [19]) amounted to 90%; in assay [4] (setting [20]), 100%.

As for `Cc1cc(-c2ccc(Cl)cn2)cc(C)c1C1C(=O)CC(CC(=O)N(C)C(C)C)C1=O` (centres unmarked) [Compound B371], the pest or weed control at 250 g/ha in assay [1] (setting [13]) worked out at 100%; in assay [1] (setting [14]), 90%; in assay [2] (setting [15]) it was 100%; in assay [2] (setting [16]), 90%; in assay [3] (setting [17]), 100%; in assay [3] (setting [18]), 100%. In addition, the pest or weed control at 250 g/ha in assay [4] (setting [19]) and in assay [4] (setting [20]) was 100% throughout.
